Measured values: patent US20240316022A1 (TYRA BIOSCIENCES, INC., priority 2021, published 2024)

Tests used:
FGFR1 = target: T1, FGFR1 (Homo sapiens, UniProt P11362); assay: Kinase binding assay (kinase-tagged T7 phage, qPCR), Kd; conditions: read-out: FGFR1 (Kd nM)
T1 construct: made in house; host or cells: E. coli derived from BL21, infected with T7 phage

FGFR2 = target: T2, FGFR2 (Homo sapiens, UniProt P21802); assay: as above; conditions: read-out: FGFR2 (Kd nM)
T2 construct: made in house; host or cells: E. coli derived from BL21, infected with T7 phage

FGFR3 = target: T3, FGFR3 (Homo sapiens, UniProt P22607); assay: as above; conditions: read-out: FGFR3 (Kd nM)
T3 construct: made in house; host or cells: E. coli derived from BL21, infected with T7 phage

FGFR4 = target: T4, FGFR4 (Homo sapiens, UniProt P22455); assay: as above; conditions: read-out: FGFR4 (Kd nM)
T4 construct: made in house; host or cells: E. coli derived from BL21, infected with T7 phage

BCR-FGFR1 Ba/F3 = target: T5, BCR-FGFR1 Ba/F3 (Homo sapiens, UniProt P11362); assay: Ba/F3 cell viability assay (CellTiter-Glo 2.0); format: cell-based; conditions: Ba/F3 BCR-FGFR1 cells, 48 hours
T5 construct: host or cells: Ba/F3; the other entry of the earlier key: BCR (P11274, Breakpoint cluster region protein)
Text: (§1) Experimental Purpose: Recombinant kinase fusions are transduced into parental Ba/F3, which becomes dependent upon this constitutive kinase activity for IL3-independent survival. Inhibition of kinase activity leads to cell death, which is monitored using CellTiter-Glo® 2.0 (Promega) which measures intracellular ATP concentration that in turn serves as a marker for viability. BCR-FGFR4 Ba/F3, BCR-FGFR1 Ba/F3 and FGFR3-BAIAP2L1 Ba/F3 were obtained from Advanced Cellular Dynamics (Seattle, WA)
(§2) Cell Viability Assay Procedure: Cell Titer-Glo® 2.0 Luminescent cell viability assay reagent was purchased from Promega (Madison, WI). BCR-FGFR4 Ba/F3, BCR-FGFR1 Ba/F3 and FGFR3-BAIAP2L1 Ba/F3 cells were cultured in RPMI1640 media supplemented with 10% fetal bovine serum. Cultures were maintained at 37° C. in a humidified atmosphere of 5% CO2 and 95% air.
(§3) Cells were plated in 96-well clear bottom/white plates (Corning #3903) at 10,000 cells/well in 100 μl of media, incubated overnight. The next day, test compound DMSO stock solutions were made at 10 mM and 2 μM final concentration. Compounds were then added to cells in a 9-dose, 10-fold dilution series starting at 30 μM with an HP 300e Digital Dispenser (each dose was applied in triplicate). DMSO was backfilled to each well up to 301 nL total volume of test compound+DMSO, and a total of 301 nL DMSO was added to a control/no test compound well in triplicate. The cells in cell culture plates were incubated with the compounds at 37° C. and 5% CO2 for 48 hours. Then 50 μl of Cell Titer Glo 2.0 reagent was added to each well of the cell culture plates. The contents were covered from light and mixed on an orbital shaker at room temperature for 10 min. Luminescence was recorded by a Synergy H1 Microplate Reader (Biotek, Winooski, VT). Cells were assessed as a percentage of DMSO only treated control cells. Curves were plotted and IC50 values were calculated using the GraphPad Prism 8 program based on a sigmoidal dose-response equation (4 parameter).

FGFR3-BAIAP2L1 Ba/F3 = target: T6, FGFR3-BAIAP2L1 Ba/F3 (Homo sapiens, UniProt P22607); assay: Ba/F3 cell viability assay (CellTiter-Glo 2.0); format: cell-based; conditions: Ba/F3 FGFR3-BAIAP2L1 cells, 48 hours
T6 construct: host or cells: Ba/F3; the other entry of the earlier key: BAIAP2L1 (Q9UHR4, BAR/IMD domain-containing adapter protein 2-like 1)
Text: as §1, §2, §3

T2 sequence (P21802 22-821): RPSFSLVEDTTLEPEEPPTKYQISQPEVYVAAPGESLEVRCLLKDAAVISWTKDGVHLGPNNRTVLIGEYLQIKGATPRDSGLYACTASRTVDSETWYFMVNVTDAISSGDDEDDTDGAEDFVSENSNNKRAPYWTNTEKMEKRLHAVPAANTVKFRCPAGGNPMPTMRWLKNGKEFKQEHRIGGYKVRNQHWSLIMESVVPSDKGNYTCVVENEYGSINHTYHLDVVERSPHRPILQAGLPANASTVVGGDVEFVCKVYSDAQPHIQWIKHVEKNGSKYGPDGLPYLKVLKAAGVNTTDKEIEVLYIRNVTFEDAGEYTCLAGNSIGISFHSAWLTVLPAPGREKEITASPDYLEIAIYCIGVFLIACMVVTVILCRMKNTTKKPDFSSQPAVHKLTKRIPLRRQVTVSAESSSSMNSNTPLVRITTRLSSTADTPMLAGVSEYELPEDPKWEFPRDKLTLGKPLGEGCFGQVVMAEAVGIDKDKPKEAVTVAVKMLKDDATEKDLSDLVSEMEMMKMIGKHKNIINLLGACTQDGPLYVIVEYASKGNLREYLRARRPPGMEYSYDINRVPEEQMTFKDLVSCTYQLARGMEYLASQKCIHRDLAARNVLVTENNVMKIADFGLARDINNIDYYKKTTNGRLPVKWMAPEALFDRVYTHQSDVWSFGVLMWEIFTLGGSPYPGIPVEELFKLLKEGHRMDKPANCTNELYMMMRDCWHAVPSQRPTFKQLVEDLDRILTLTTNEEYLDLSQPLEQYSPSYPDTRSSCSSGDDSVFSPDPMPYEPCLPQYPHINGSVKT
T4 sequence (P22455 22-802): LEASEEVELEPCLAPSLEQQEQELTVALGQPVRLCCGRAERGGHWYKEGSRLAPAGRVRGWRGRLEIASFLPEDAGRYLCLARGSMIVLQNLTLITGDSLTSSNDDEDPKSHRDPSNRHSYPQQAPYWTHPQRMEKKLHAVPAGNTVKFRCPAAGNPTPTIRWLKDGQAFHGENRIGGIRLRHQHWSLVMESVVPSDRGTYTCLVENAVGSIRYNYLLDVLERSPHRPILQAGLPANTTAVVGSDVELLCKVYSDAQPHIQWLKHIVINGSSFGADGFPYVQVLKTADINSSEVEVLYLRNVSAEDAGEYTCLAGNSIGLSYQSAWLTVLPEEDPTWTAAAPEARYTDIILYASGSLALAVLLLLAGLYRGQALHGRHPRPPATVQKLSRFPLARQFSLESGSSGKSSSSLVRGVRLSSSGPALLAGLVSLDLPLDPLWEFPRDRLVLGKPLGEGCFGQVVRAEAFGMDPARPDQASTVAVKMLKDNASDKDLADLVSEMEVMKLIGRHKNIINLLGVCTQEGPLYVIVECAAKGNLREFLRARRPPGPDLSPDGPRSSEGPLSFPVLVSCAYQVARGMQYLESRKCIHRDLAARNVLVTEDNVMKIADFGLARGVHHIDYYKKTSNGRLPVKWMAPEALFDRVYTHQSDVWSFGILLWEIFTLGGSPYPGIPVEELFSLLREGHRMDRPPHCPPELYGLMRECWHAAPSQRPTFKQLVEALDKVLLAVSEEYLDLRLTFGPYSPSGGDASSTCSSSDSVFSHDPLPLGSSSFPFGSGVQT
T5 sequence (P11362 478-767 limits assumed): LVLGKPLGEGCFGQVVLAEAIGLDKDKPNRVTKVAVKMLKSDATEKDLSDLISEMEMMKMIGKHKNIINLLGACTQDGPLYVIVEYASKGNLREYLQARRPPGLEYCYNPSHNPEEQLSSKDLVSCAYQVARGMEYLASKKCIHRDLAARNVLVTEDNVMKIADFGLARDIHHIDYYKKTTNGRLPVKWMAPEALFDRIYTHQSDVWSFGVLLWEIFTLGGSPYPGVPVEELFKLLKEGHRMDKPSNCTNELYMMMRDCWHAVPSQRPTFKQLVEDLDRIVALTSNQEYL
T3 sequence (P22607 23-806): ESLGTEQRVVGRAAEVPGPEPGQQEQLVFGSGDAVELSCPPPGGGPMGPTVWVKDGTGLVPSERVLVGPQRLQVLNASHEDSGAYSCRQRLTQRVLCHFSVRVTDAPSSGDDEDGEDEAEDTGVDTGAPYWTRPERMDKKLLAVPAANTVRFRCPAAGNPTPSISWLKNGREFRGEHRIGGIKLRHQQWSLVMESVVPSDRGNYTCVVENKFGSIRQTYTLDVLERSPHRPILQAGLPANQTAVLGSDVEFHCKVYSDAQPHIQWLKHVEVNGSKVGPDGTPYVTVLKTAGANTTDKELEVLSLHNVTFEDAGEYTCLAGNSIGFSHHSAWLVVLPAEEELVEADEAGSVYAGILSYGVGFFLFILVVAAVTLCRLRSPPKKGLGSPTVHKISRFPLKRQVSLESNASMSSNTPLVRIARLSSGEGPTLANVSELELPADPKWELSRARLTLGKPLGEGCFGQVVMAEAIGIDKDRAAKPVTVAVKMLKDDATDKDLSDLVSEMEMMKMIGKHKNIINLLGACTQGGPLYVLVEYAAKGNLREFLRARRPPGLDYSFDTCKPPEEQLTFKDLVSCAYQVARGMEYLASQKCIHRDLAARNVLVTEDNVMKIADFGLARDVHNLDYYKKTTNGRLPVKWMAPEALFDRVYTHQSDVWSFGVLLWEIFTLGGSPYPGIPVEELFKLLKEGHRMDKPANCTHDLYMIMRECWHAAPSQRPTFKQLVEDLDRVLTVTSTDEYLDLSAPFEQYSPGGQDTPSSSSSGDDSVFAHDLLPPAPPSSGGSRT
T6 sequence (P22607 397-758 limits assumed): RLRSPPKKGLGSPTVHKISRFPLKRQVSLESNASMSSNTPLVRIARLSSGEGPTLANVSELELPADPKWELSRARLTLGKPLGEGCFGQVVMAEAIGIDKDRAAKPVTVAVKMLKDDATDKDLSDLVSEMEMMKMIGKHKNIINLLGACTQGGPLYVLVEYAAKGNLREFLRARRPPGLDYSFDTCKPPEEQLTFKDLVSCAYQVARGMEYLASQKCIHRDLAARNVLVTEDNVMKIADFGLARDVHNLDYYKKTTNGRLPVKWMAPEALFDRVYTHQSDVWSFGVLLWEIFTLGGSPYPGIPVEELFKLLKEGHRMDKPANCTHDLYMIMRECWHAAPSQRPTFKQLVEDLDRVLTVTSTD
T1 sequence (P11362 22-822): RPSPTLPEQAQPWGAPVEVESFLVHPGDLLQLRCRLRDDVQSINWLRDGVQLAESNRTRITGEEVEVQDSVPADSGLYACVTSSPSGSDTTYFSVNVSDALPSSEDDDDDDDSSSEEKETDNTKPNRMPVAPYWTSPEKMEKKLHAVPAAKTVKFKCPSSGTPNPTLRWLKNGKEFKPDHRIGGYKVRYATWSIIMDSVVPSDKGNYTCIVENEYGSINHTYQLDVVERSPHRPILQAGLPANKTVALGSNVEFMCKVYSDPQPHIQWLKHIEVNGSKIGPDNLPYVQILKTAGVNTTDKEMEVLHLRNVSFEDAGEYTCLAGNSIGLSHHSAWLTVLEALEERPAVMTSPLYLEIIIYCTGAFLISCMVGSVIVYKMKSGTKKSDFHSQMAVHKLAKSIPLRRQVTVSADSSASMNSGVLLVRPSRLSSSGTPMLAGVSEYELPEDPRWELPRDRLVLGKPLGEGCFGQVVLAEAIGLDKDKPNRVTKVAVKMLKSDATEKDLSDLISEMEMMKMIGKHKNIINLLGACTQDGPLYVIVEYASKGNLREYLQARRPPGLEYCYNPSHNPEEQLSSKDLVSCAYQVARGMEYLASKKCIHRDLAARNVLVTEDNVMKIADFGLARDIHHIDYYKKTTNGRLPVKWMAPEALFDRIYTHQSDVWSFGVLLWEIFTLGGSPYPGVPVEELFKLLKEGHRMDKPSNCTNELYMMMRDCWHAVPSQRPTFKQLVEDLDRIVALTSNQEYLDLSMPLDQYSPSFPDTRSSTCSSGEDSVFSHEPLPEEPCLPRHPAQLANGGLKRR

| SMILES | Kd (FGFR1) [nM] | Kd (FGFR2) [nM] | Kd (FGFR3) [nM] | Kd (FGFR4) [nM] | IC50 (BCR-FGFR1 Ba/F3) [nM] | IC50 (FGFR3-BAIAP2L1 Ba/F3) [nM] |
| --- | --- | --- | --- | --- | --- | --- |
| CCN1CCC2(CC1)OCc1cc(-c3n[nH]c4ccc(O[C@H](C)c5c(C)cnnc5C)cc34)ccc1O2 [Example 106, (R)-6-(5-(1-(3,5-dimethylpyridazin-4-yl)ethoxy)-1H-indazol-3-yl)-1′-ethyl-4H-spiro[benzo[d][1,3]dioxine-2,4′-piperidine]] | 0.1 to 100 | 0.1 to 100 | 0.1 to 100 | 0.1 to 100 | 0.1 to 100 | 0.1 to 100 |
| C[C@@H](Oc1ccc2[nH]nc(-c3ccc4c(c3)C(=O)CC3(CCNCC3)O4)c2c1)c1c(Cl)cncc1Cl [Example 92, (R)-6-(5-(1-(3,5-Dichloropyridin-4-yl)ethoxy)-1H-indazol-3-yl)spiro[chromane-2,4′-piperidin]-4-one] | 0.1 to 100 | 0.1 to 100 | 0.1 to 100 | 0.1 to 100 | 250 to 1000 | 0.1 to 100 |
| Cc1ncc(Cl)c([C@@H](C)Oc2ccc3[nH]nc(-c4ccc(O[C@H]5CCOC5)nc4)c3c2)c1Cl [Example 150, 5-[(1R)-1-(3,5-dichloro-2-methyl-4-pyridyl)ethoxy]-3-[6-[(3S)-tetrahydrofuran-3-yl]oxy-3-pyridyl]-1H-indazole] | 0.1 to 100 | 0.1 to 100 | 0.1 to 100 | 0.1 to 100 | 250 to 1000 | 0.1 to 100 |
| Cc1ncc(Cl)c([C@@H](C)Oc2ccc3[nH]nc(-c4ccc(O[C@@H]5CCOC5)nc4)c3c2)c1Cl [Example 147, 5-((R)-1-(3,5-Dichloro-2-methylpyridin-4-yl)ethoxy)-3-(6-(((R)-tetrahydrofuran-3-yl)oxy)pyridin-3-yl)-1H-indazole] | 0.1 to 100 | 0.1 to 100 | 0.1 to 100 | 0.1 to 100 | > 1000 | 100 to 250 |
| C[C@@H](Oc1ccc2[nH]nc(-c3ccc(NC(=O)N4CCOCC4)nc3)c2c1)c1c(Cl)cncc1Cl [Example 16, N-[5-[5-[(1R)-1-(3,5-dichloro-4-pyridyl)ethoxy]-1H-indazol-3-yl]-2-pyridyl]morpholine-4-carboxamide] | 0.1 to 100 | 0.1 to 100 | 0.1 to 100 | 0.1 to 100 | 0.1 to 100 | 0.1 to 100 |
| Cc1cc(-c2n[nH]c3ccc(O[C@H](C)c4c(Cl)cncc4Cl)cc23)cnc1NC1CCOCC1 [Example 151, (R)-5-(5-(1-(3,5-Dichloropyridin-4-yl)ethoxy)-1H-indazol-3-yl)-3-methyl-N-(tetrahydro-2H-pyran-4-yl)pyridin-2-amine] | 100 to 250 | 100 to 250 | 0.1 to 100 | 0.1 to 100 | 250 to 1000 | 0.1 to 100 |
| C[C@@H](Oc1ccc2[nH]nc(-c3cnc4c(c3)N(S(C)(=O)=O)CCO4)c2c1)c1c(Cl)cncc1Cl [Example 137, 7-[5-[(1R)-1-(3,5-dichloro-4-pyridyl)ethoxy]-1H-indazol-3-yl]-1-methylsulfonyl-2,3-dihydropyrido[2,3-b][1,4]oxazine] | 250 to 1000 | 100 to 250 | 0.1 to 100 | 0.1 to 100 | 250 to 1000 | 0.1 to 100 |
| C[C@@H](Oc1ccc2[nH]nc(-c3ccc(N)nc3)c2c1)c1c(Cl)cncc1Cl [Example 8, (R)-5-(5-(1-(3,5-Dichloropyridin-4-yl)ethoxy)-1H-indazol-3-yl)pyridin-2-amine] | 0.1 to 100 | 0.1 to 100 | 0.1 to 100 | 0.1 to 100 | 0.1 to 100 | 0.1 to 100 |
| CCN1CCC2(CC1)OCc1cc(-c3n[nH]c4ccc(O[C@H](C)c5c(Cl)cncc5Cl)cc34)ccc1O2 [Example 96, (R)-6-(5-(1-(3,5-Dichloropyridin-4-yl)ethoxy)-1H-indazol-3-yl)-1′-ethyl-4H-spiro[benzo[d][1,3]dioxine-2,4′-piperidine]] | 0.1 to 100 | 0.1 to 100 | 0.1 to 100 | 0.1 to 100 | 100 to 250 | 0.1 to 100 |
| C[C@@H](Oc1ccc2[nH]nc(-c3ccc(NC(=O)CN(C)C)nc3)c2c1)c1c(Cl)cncc1Cl [Example 13, N-[5-[5-[(1R)-1-(3,5-dichloro-4-pyridyl)ethoxy]-1H-indazol-3-yl]-2-pyridyl]-2-(dimethylamino)-acetamide] | 0.1 to 100 | 0.1 to 100 | 0.1 to 100 | 0.1 to 100 | 0.1 to 100 | 0.1 to 100 |

The next lines start with results.

| Kd (FGFR1) [nM] | Kd (FGFR2) [nM] | Kd (FGFR3) [nM] | Kd (FGFR4) [nM] | SMILES | IC50 (BCR-FGFR1 Ba/F3) [nM] | IC50 (FGFR3-BAIAP2L1 Ba/F3) [nM] |
| --- | --- | --- | --- | --- | --- | --- |
| 0.1 to 100 | 0.1 to 100 | 0.1 to 100 | 0.1 to 100 | C[C@@H](Oc1ccc2[nH]nc(-c3ccc(NC4CC5(C4)CN(S(C)(=O)=O)C5)nc3)c2c1)c1c(Cl)cncc1Cl [Example 159, (R)-N-(5-(5-(1-(3,5-dichloropyridin-4-yl)ethoxy)-1H-indazol-3-yl)pyridin-2-yl)-2-(methylsulfonyl)-2-azaspiro[3.3]heptan-6-amine] | 0.1 to 100 | 0.1 to 100 |
| 100 to 250 | 0.1 to 100 | 0.1 to 100 | 100 to 250 | Cc1ncc(Cl)c([C@@H](C)Oc2ccc3[nH]nc(-c4ccc5c(c4)COC4(CCN(S(C)(=O)=O)CC4)O5)c3c2)c1Cl [Example 163, (R)-6-(5-(1-(3,5-Dichloro-2-methylpyridin-4-yl)ethoxy)-1H-indazol-3-yl)-1′-(methylsulfonyl)-4H-spiro[benzo[d][1,3]dioxine-2,4′-piperidine]] | 250 to 1000 | 0.1 to 100 |
| 0.1 to 100 | 0.1 to 100 | 0.1 to 100 | 0.1 to 100 | Cc1ncc(Cl)c([C@@H](C)Oc2ccc3[nH]nc(-c4ccc(N[C@H]5CCOC5)nc4)c3c2)c1Cl [Example 160, 5-[5-[(1R)-1-(3,5-dichloro-2-methyl-4-pyridyl)ethoxy]-1H-indazol-3-yl]-N-[(3S)-tetrahydrofuran-3-yl]pyridin-2-amine] | 100 to 250 | 0.1 to 100 |
| 0.1 to 100 | 0.1 to 100 | 0.1 to 100 | 0.1 to 100 | C[C@@H](Oc1ccc2[nH]nc(-c3ccc4c(c3)COC3(CCN(C5CCC5)CC3)O4)c2c1)c1c(Cl)cncc1Cl [Example 157, (R)-1′-Cyclobutyl-6-(5-(1-(3,5-dichloropyridin-4-yl)ethoxy)-1H-indazol-3-yl)-4H-spiro[benzo[d][1,3]dioxine-2,4′-piperidine]] | 250 to 1000 | 0.1 to 100 |
| 100 to 250 | 100 to 250 | 0.1 to 100 | 0.1 to 100 | C[C@@H](Oc1ccc2[nH]nc(-c3ccc4c(c3)COC3(CCN(CC(F)(F)F)CC3)O4)c2c1)c1c(Cl)cncc1Cl [Example 169, 6-[5-[(1R)-1-(3,5-dichloro-4-pyridyl)ethoxy]-1H-indazol-3-yl]-1′-(2,2,2-trifluoroethyl)spiro[4H-1,3-benzodioxine-2,4′-piperidine]] | > 1000 | 0.1 to 100 |
| 0.1 to 100 | 0.1 to 100 | 0.1 to 100 | 0.1 to 100 | C[C@@H](Oc1ccc2[nH]nc(-c3ccc4c(c3)COC3(CCN(S(C)(=O)=O)CC3)O4)c2c1)c1c(Cl)cncc1Cl [Example 165, 6-[5-[(1R)-1-(3,5-dichloro-4-pyridyl)ethoxy]-1H-indazol-3-yl]-1′-methylsulfonyl-spiro[4H-1,3-benzodioxine-2,4′-piperidine]] | 250 to 1000 | 0.1 to 100 |
| 100 to 250 | 100 to 250 | 0.1 to 100 | 0.1 to 100 | Cc1ncc(Cl)c([C@@H](C)Oc2ccc3[nH]nc(-c4ccc5c(c4)COC4(CCN(CC(F)F)CC4)O5)c3c2)c1Cl [Example 166, (R)-6-(5-(1-(3,5-Dichloro-2-methylpyridin-4-yl)ethoxy)-1H-indazol-3-yl)-1′-(2,2-difluoroethyl)-4H-spiro[benzo[d][1,3]dioxine-2,4′-piperidine]] | > 1000 | 100 to 250 |
| 0.1 to 100 | 0.1 to 100 | 0.1 to 100 | 0.1 to 100 | Cc1ncc(Cl)c([C@@H](C)Oc2ccc3[nH]nc(-c4ccc(NC5CCOCC5)nc4)c3c2)c1Cl [Example 156] | 100 to 250 | 0.1 to 100 |
